Experimental data as given in patent US6635629B2, “3-nitrogen-6,7-dioxygen steroids and uses related thereto” (Inflazyme Pharmaceuticals Ltd., priority 2000, dated 2003).

Legend:
[1] = test system: rat mast cell line (RBL-2H3); assay: Antigen-induced release of hexosaminidase from a rat mast cell line (RBL-2H3); format: cell-based; conditions: inhibition of DNP-HSA antigen-induced hexosaminidase release; tested at 0.3, 3, 10 and 30 μM; read-out: Hex IC50
Method: The anti-allergic effects of a compound of the present invention was evaluated by measuring its effect on antigen-induced secretion of hexosaminidase from a passively sensitized rat mast cell line. The ability of a test compound to inhibit the release of mast cell granule contents, e.g., histamine and hexosaminidase, is indicative of the anti-allergy and/or anti-asthma activity of the compound. Hexosaminidase is released from the mast cell granule along with histamine and other mediators during antigen challenge. The test is performed as follows.
RBL-2H3 cells are grown in culture and passively sensitized for 1 hour at 37° C. to dinitrophenol (DNP) using anti-human-DNP (IgE). Cells are incubated with test compound for 30 minutes at 37° C. and stimulated with 0.5 μg/ml DNP-HSA (antigen) for 30 minutes. Aliquots of the supernatant are removed and used to measure the amount of hexosaminidase released during challenge with the antigen. […] The effect of each test compound is determined as a percentage of the antigen-induced response (minus background release) obtained in the presence of DMSO alone. These values are used to determine the degrees of inhibition of antigen-induced hexosaminidase release from the cells.

Jurkat clone E6.1 cells = assay: Antigen-induced (anti-CD3 mAb) calcium flux in Jurkat clone E6.1 cells; format: cell-based; conditions: for Calcium (% inhibition at 20 μM): anti-CD3 mAb 4 μg/mL, Fura 2AM
From the text: Elevation of cytoplasmic calcium concentration is a common and crucial event which follows the activation of many types of cell surface receptors. Increases in intracellular calcium that occur following agonist activation of inositol lipid hydrolysis are the results of calcium release from the endoplasmic reticulum and the influx of calcium through the plasma membrane. Increases in cytosolic calcium concentration are involved in many important cellular responses in the inflammatory process including adhesion, motility, gene expression, proliferation, and degranulation. Changes in intracellular calcium centrations can affect both short and long term cellular responses. An assay method to evaluate a test compound's impact on calcium flux is provided as follows.
The resulting supernatants are discarded and each pellet is washed in 10 mL HBSS. Cell suspensions are accumulated and centrifuged for 5 minutes at 900 RPM to form a cell pellet. The resulting supernatant is discarded and the pellet is resuspended in HBSS at 1×10^7 cells/mL. The cell suspension is transferred to a 20 mm petri dish and incubated at 37° C., 5% CO2 for 20 minutes.
One volume of Fura 2AM is mixed to one volume of detergent Pluronic F127. Cells are labeled with 4 μL of probe solution to each mL of cell suspension. The petri dish is wrapped in aluminum foil to protect from light and placed on a plate shaker for 30 minutes at room temperature.
The following steps are done in the laminar flow hood with the fluorescent lights turned off. The petri dish is removed from the shaker and the labeled cell suspension is transferred to a 15 mL conical tube and washed twice with HBSS as above. The cell pellet is resuspended in 12 mL HBSS and left wrapped in foil for 30 minutes at room temperature. The labeled cell suspension is aliquoted (100 μL/well) into a Dynex 96 well white opaque tissue culture plate. […] Selected compounds were tested for dose related activity. Test samples and activator (anti—CD3 mAb at final concentration of 4 μg/mL, PharMingen) are added manually (50 μL), such that the minimum time to acquire the first data point after stimulation is approximately 30 seconds. The calcium influx response to anti-CD3 mAb is measured as an “end point” assay. The entire plate is read in 100 seconds using a kinetic of 1 second per well.
The plate is read before the addition of anti-CD3 to monitor non-specific effect of samples/drugs. Fluorescence emission is measured at 510 nm with excitation alternating between 340 and 380 every second using an excitation/emission filter pair. Data from these dual wavelengths are represented as a ratio of 2 excitations wavelengths. This ratio is independent of intracellular dye and cell concentrations, enabling real comparison between experiments.

[2] = test system: sensitized Brown Norway rats; assay: Ovalbumin-induced accumulation of inflammatory cells in lung lavage fluid of sensitized Brown Norway rats; format: in vivo, rat; conditions: 1 mg/kg/day for 4 days, p.o., corn oil vehicle; relative to control animals
Method: The ability of a compound to inhibit the allergen-induced accumulation of inflammatory cells such as eosinophils and neutrophils in the lavage fluid obtained from sensitized animals is indicative of that compound's anti-asthma activity. […] The test is conducted as follows.
Male Brown Norway rats are sensitized to ovalbumin by single intraperitoneal injection of 1 mg ovalbumin adsorbed to 100 mg A(OH)3 (alum) in 1 ml sterile saline (saline control rats receive only sterile saline) on day 1, and allowed to sensitize until day 21. […] Rats are challenged with 0.5% ovalbumin in saline generated using a Devillbis nebulizer for 60 min on day 21.
Forty-eight hrs after challenge, animals are sacrificed with an overdose of intraperitoneally-delivered sodium pentobarbitol and the lungs are lavaged with cold 2×7 ml phosphate buffered saline. The recovered lavage fluid is placed on ice. The bronchoalveolar lavage fluid is centrifuged and the supernatant removed. The pellet is resuspended in phosphate buffered saline at 4° C. Cytospins are prepared and stained for differentiation and enumeration of cell types.
Test compound was administered in 300 μl corn oil (Tables 7 and 8) or water (Table 9), which were used as vehicles. Control animals received 300 μl corn oil or water alone, i.e., no drug. […] A negative value in Table 7, 8, or 9 indicates an exacerbation of the effect over the control animal.

| Compound | IC50 [1] [µM] | Calcium (% inhibition at 20 μM) (Jurkat clone E6.1 cells) [%] | also measured |
| --- | --- | --- | --- |
| CCC1(C)CCC2=C1CCC1C2C(O)C(O)C2CC(Nc3ccccc3)CCC21C.Cl (mixture of isomers) [Compound 144] | 6.9 | 13.0 |  |
| CCC1(C)CCC2=C1CCC1C2C(O)C(O)C2CC(Nc3cccc(C(F)(F)F)c3)CCC21C.Cl (mixture of isomers) [Compound 145] | 22 | −0.2 |  |
| C=C1CCC2C3C(CC[C@]12C)[C@@]1(C)CCC(N)CC1[C@@H](O)[C@@H]3O (stereo partly shown) [Compound 54] |  | 19.8 | % inhibition of eosinophils [2]: −82%; % inhibition of lymphocytes [2]: −7%; % inhibition of neutrophils [2]: −19% |
| C=C1CCC2C3C(CC[C@]12C)[C@@]1(C)CCC(N)CC1[C@@H](OC)[C@@H]3OC (stereo partly shown) [Compound 80] | 10.7 | 7.4 |  |
| C=C1CCC2C3C(O)C(O)C4CC(NCc5ccccc5F)CCC4(C)C3CCC12C.CC(=O)O (stereo not shown) [Compound 101] |  | 16.3 |  |
| C=C1CCC2C3C(O)C(O)C4CC(NCc5cccc(C(F)(F)F)c5)CCC4(C)C3CCC12C.CC(=O)O (stereo not shown) [Compound 102] | 10 | 9.5 |  |
| C=C1CCC2C3C(O)C(O)C4CC(NCc5ccccc5OC)CCC4(C)C3CCC12C.CC(=O)O (stereo not shown) [Compound 103] | 11.1 | 23.7 |  |
| C=C1CCC2C3C(O)C(O)C4CC(NCc5ccc(OC(F)(F)F)cc5)CCC4(C)C3CCC12C.CC(=O)O (stereo not shown) [Compound 104] | 9.5 | 30.3 |  |
| C=C1CCC2C3C(O)C(O)C4CC(NCc5cccc(Oc6ccccc6)c5)CCC4(C)C3CCC12C.CC(=O)O (stereo not shown) [Compound 105] | 22.5 | 10.2 |  |
| C=C1CCC2C3C(O)C(O)C4CC(NCc5cccc([N+](=O)[O-])c5)CCC4(C)C3CCC12C (stereo not shown) [Compound 106] | 8.8 | 8.1 |  |
| CC=C1CCC2C3C(O)C(O)C4CC(N5CCOCC5)CCC4(C)C3CCC12C.Cl (stereo not shown) [Compound 111] | 9.3 | 53.1 |  |
| C/C=C1/CCC2C3C(CC[C@]12C)[C@@]1(C)CCC(NC)CC1[C@@H](O)[C@@H]3O (stereo partly shown) [Compound 113] | 9.8 | 45.0 |  |
| CC=C1CCC2C3C(O)C(O)C4CC(NCCC)CCC4(C)C3CCC12C.Cl (stereo not shown) [Compound 114] |  | 37.9 |  |
| CC=C1CCC2C3C(O)C(O)C4CC(NCCCCC)CCC4(C)C3CCC12C.Cl (stereo not shown) [Compound 115] | 11.1 | 40.0 |  |
| CC=C1CCC2C3C(O)C(O)C4CC(NC5CCCC5)CCC4(C)C3CCC12C (stereo not shown) [Compound 116] | 9.6 |  |  |
| CC(=O)O.CC=C1CCC2C3C(O)C(O)C4CC(NC5CCCCC5)CCC4(C)C3CCC12C (stereo not shown) [Compound 117] | 6.6 | 42.2 |  |

| Compound | IC50 [1] [µM] | Calcium (% inhibition at 20 μM) (Jurkat clone E6.1 cells) [%] | also measured |
| --- | --- | --- | --- |
| CC(=O)O.CC=C1CCC2C3C(O)C(O)C4CC(N5CCCC5)CCC4(C)C3CCC12C (stereo not shown) [Compound 118] | 11 | 41.8 |  |
| CC=C1CCC2C3C(O)C(O)C4CC(NCCNCCC)CCC4(C)C3CCC12C.Cl.Cl (stereo not shown) [Compound 119] |  | 54.5 | IC50 (Jurkat clone E6.1 cells; dose response activity examined): ≤ 10 µM |
| CC=C1CCC2C3C(O)C(O)C4CC(NCCN(C)C)CCC4(C)C3CCC12C.Cl.Cl (stereo not shown) [Compound 120] | 9.1 | 44.0 |  |
| CC(=O)O.CC=C1CCC2C3C(O)C(O)C4CC(N5CCNCC5)CCC4(C)C3CCC12C (stereo not shown) [Compound 121] | 14.4 | 42.4 |  |
| CC=C1CCC2C3C(O)C(O)C4CC(NCCO)CCC4(C)C3CCC12C.Cl (stereo not shown) [Compound 122] | 12.3 | 31.4 |  |
| CC=C1CCC2C3C(O)C(O)C4CC(NCCCCCO)CCC4(C)C3CCC12C.Cl (stereo not shown) [Compound 123] | 16.7 | 12.8 |  |
| CC=C1CCC2C3C(O)C(O)C4CC(NCCNCCO)CCC4(C)C3CCC12C.Cl.Cl (stereo not shown) [Compound 124] |  | 21.0 | % inhibition of eosinophils [2]: −55%; % inhibition of lymphocytes [2]: −26%; % inhibition of neutrophils [2]: −76% |
| CC=C1CCC2C3C(O)C(O)C4CC(Nc5cccc(C)c5)CCC4(C)C3CCC12C.Cl (stereo not shown) [Compound 125] | 39.4 | 5.7 |  |
| CC=C1CCC2C3C(O)C(O)C4CC(Nc5ccc(O)cc5)CCC4(C)C3CCC12C.Cl (stereo not shown) [Compound 126] | 9.7 | 45.0 |  |
| CC=C1CCC2C3C(O)C(O)C4CC(Nc5ccc(S(N)(=O)=O)cc5)CCC4(C)C3CCC12C.Cl (stereo not shown) [Compound 127] | 10.1 | 29.4 |  |
| C=C1CCC2C3C(CC[C@]12C)[C@@]1(C)CC[C@@H](NC(C)=O)CC1[C@@H](O)[C@@H]3O (stereo partly shown) [Compound 131] |  |  | % inhibition of eosinophils [2]: 16%; % inhibition of lymphocytes [2]: 21%; % inhibition of neutrophils [2]: 57% |
| C=C1CCC2C3C(CC[C@]12C)[C@@]1(C)CC[C@@H](NC(=O)c2ccccc2)CC1[C@@H](O)[C@@H]3O (stereo partly shown) [Compound 132] | 10 | 19.6 |  |
| C=C1CCC2C3C(CC[C@]12C)[C@@]1(C)CC[C@@H](NS(=O)(=O)C(C)C)CC1[C@@H](O)[C@@H]3O (stereo partly shown) [Compound 133] |  |  | % inhibition of eosinophils [2]: −43%; % inhibition of lymphocytes [2]: 28%; % inhibition of neutrophils [2]: 40% |
| C=C1CCC2C3C(CC[C@]12C)[C@@]1(C)CC[C@@H](NS(=O)(=O)c2ccccc2)CC1[C@@H](O)[C@@H]3O (stereo partly shown) [Compound 134] | 16.7 | 25.1 |  |
| Cc1cccc(CNC2CCC3(C)C(C2)C(O)C(O)C2C4=C(CCC23)C(C)(C)CC4)c1.Cl (stereo not shown) [Compound 140] | 10.2 | 21.5 |  |
| COC1C(OC)C2CC(N)CCC2(C)C2CCC3=C(CCC3(C)C)C12.Cl (stereo not shown) [Compound 148] | 29.2 | 6.6 |  |
